Experimental data as given in patent US6407125B1, “Pharmacological agent and method of treatment” (Novactyl, Inc., priority 1995, dated 2002).

Tests used:
WI-38 cells = experiment: Growth of WI-38 cells (total cell protein, cell number); type: cell-based; conditions: 3 mM picolinic acid
Experimental: Cells were plated at 1.5×10^5 cells/60-mm dish; 48 hours later, the medium was removed, and new media with or without 3 mM picolinic acid was added. Total cell protein was determined at the indicated times; each point is the average of triplicate measurements from 2 cultures.
In initial experiments to examine the effects of fusaric acid on cell growth and viability, WI-38 and LoVo cells were incubated for 24 to 72 hours in medium with or without various doses of fusaric acid (0.1-1 mM). The growth of both WI-38 and LoVo cells was inhibited by 500 μM fusaric acid in a time and dose dependent manner, as shown below in Table 2.

papilloma virus = experiment: Topical treatment of ulcerative papilloma virus lesion in a horse; type: in vivo; conditions: for diameter of the lesion: initially 3 inch
Experimental: The lesion was progressive, with total loss of hair over the area. The diagnosis was viral disease, i.e. papilloma virus, complicated by fungal infection. The horse was treated with conventional local antibiotic and chemical therapies for about four months.
An aqueous solution of 10% picolinic acid in deionized water was applied every other day with a cotton swab over and around the lesion. The treatment continued for 45 days. The course of the regression of the viral lesion was as follows: […]

plantar wart = experiment: Topical treatment of virus-induced plantar ulcer; type: in vivo, human
Experimental: A patient with recurrent plantar wart of about 2 cm in diameter was treated with topical picolinic acid. The patient, a pathologist who had difficulty walking because of the pain caused by the ulcer, had experimented with numerous medications for more than three months without any significant results prior to treatment with the picolinic acid. It is relevant to note that many plantar ulcers are transformed into malignant tumors.
The patient was treated with a solution of 10% picolinic acid in deionized water for one week. […] They then were treated with 10% picolinic acid in Aquaphor. The ointment was placed on the ulcer and on a patch. The patch was replaced every 24 hours.

[1] = in a 70 Kg subject; cited from earlier work
transformed cells = conditions: cited from earlier work
osteosarcoma = experiment: Oral treatment of osteosarcoma in canine; type: in vivo, dog; conditions: 500 mg capsules twice daily, six days after initiating treatment
Experimental: The subject animal was a Bichon Frise dog that was diagnosed by a veterinarian with osteosarcoma. The osteosarcoma had invaded the dog's mandible and was encroaching on the lower portion of the orbit. The veterinarian began treatment with picolinic acid. The dog was administered 500 mg of picolinic acid, in capsules, twice daily. Six days after initiating treatment the veterinarian documented that the osteosarcoma had reduced approximately 40% in size. One week later the veterinarian observed that the tumor looked “necrotic”. The veterinarian incised the skin above the tumor and removed fluid from the center of the tumor.

normal cells = conditions: longer exposure; most normal cells; cited from earlier work
metastatic colon cancer = experiment: Oral treatment of metastatic colon cancer, case; type: in vivo, human
Source text: The inventor has determined that systemic administration of picolinic acid or derivatives is effective in controlling various cancers with reduced side effects by mechanisms heretofore unknown or unanticipated. […] The patient's condition improved. Based upon known mechanisms of action, the inventor anticipated that the patient may become anemic due to the concomitant chelation of iron. However, the inventor discovered a completely novel response. Over the course of several weeks, the patent's hematocrit increased. The inventor determined that the increase in hemoglobin along with the clinical improvement, is a result of synergistic mechanisms. First, the chelation of the iron suppressed tumor angiogenesis and induce killer T-cell formation. Furthermore, the chelated iron appears to be actively and usefully transported to bone marrow to support hematopoesis.
The subject is a person with metastatic colon cancer. The subject presented with an enlarged lymph node in the neck. The lymph node was putting pressure on nerves causing a drooping of the subject's right eyelid. […] Treatment was initiated with 500 mg of picolinic acid in capsule form, by mouth twice daily. […] An aspiration needle biopsy of the lymph node was attempted but had to be repeated due to the fact that the pathologist was withdrawing necrotic tissue from the lymph node. […] The protocol includes increasing the dosage up to 2000 mg per day, or more, if required.

In the case of `O=C(O)c1ccccn1` [picolinic acid, 2-Pyridine carboxylic acid], the “toxic effects on WI-38 cells” value (WI-38 cells; up to 72 hours of treatment) is reported as “no toxic effects”, the “growth of WI-38 cells” value (WI-38 cells; within 24 hours) is reported as “inhibited” and the “reversibility of growth inhibition” value (WI-38 cells; within 24 hours of removal of the agent) is reported as “reversible”. For the same compound, the lesion appearance (papilloma virus; 10% aqueous solution every other day, after 10 days) was “central necrosis”, the “diameter of the lesion” value (papilloma virus; 10% aqueous solution, after 20 days) was “approximately 2 inches” and the “diameter of the lesion” value (papilloma virus; 10% aqueous solution, after 30 days) was “about 1 inch”. For the same compound, the lesion outcome (papilloma virus; 10% aqueous solution, at 45 days) was “resolved with some scar tissue”, the recurrence (papilloma virus; three additional months after treatment) was “without evidence of recurring disease” and the plantar ulcer appearance (plantar wart; 10% solution in deionized water for one week) was “Central necrosis was noted”. The plantar ulcer outcome (plantar wart; then 10% in Aquaphor on ulcer and patch, additional three weeks) was “the plantar ulcer resolved”, the LD-50 [1] was 140 grams and the “cytotoxicity in transformed cells” value (transformed cells) was “cytotoxicity and cell death”. For the same compound, the “reduction in size of osteosarcoma” value (osteosarcoma) was “approximately 40%”, the “toxic effects in normal cells” value (normal cells) was “no toxic effects” and the “estimated reduction in mass of cancerous lymph node” value (metastatic colon cancer; 500 mg capsule by mouth twice daily, within 72 hours, palpation) was “over 50%”. For the same compound, the tolerability (metastatic colon cancer; 500 mg picolinic acid twice daily) was “tolerating treatment well” and the hematocrit (metastatic colon cancer; oral picolinic acid, over several weeks) was “increased”.
